One may read the Papp as a coefficient for how fast a substance crosses the barrier. The solubility is the concentration that dissolves in the medium under given conditions.

A value given as a limit tells only on which side of the number the result lay.

The results in this text go back to patent publication US20240025903A1, “Bicyclic Compounds and Uses Thereof for the Treatment of Diseases” (Athira Pharma, Inc., priority 2020, published 2024).

The subject of data set [1] is HepG2 cells. As to the kind of experiment: Cytotoxicity assay (LDH release). In kind it is cell-based. The conditions noted are these: 48 hours, 0.1 to 100 μM. Here is the method:
This experiment was designed to obtain a preliminary assessment of cytotoxicity.
HepG2 cells were plated in 96-well cell culture plates and allowed to attach overnight at 37° C., 5% CO2 in EMEM+10% FBS. Treatments were made in complete media (EMEM+10% FBS) and included a dilution series of test compounds from 0.1 to 100 μM. Known cytotoxin cerivastatin was used as a positive assay control and prepared at a final concentration of 0.5 μM.
Growth media was replaced with treatment media (EMEM+10% FBS containing test compound dissolved in DMSO) and cells were incubated with test compounds for 48 hours. At the end of the incubation period, supernatant media from each well was transferred to a new plate and LDH assay working solution was added. LDH assay solution undergoes a colorimetric reaction in proportion to the amount of lactate dehydrogenase (an intracellular protein that was only found in the media in the presence of lysed cells) in the media. Color reaction was quantified by measurement of absorbance at a wavelength of 490 nm.
The signal range of the assay was determined by no manipulation in a negative control treatment and full lysis of all cells in a lysis control sample. Compounds that increase the level of cytotoxicity more than 20% above negative control samples were considered cytotoxic in this assay.

The subject of data set [2] is MDCK cells. As to the kind of experiment: Cell scattering behavior assay. Type of data set: cell-based. Set-up: key: − indicates that the compound failed to significantly promote cell scattering behavior; + indicates maximum potency at or above 100 nM; ++ indicates maximum potency at or above 10 nM; +++ indicates maximum potency at or above 1 nM; ++++ indicates maximum potency at or above 0.1 nM. Particulars: 5 ng/mL HGF, 24 hours, normalized particle count vs HGF alone. Here is the method: MDCK cells were grown under normal conditions and observed to spontaneously form tight colonies as they proliferate. MDCK cells respond to HGF treatment by moving away from each other (scattering), which is quantified to assess the amount of HGF/MET activation in the cell population. In this experiment, MDCK cells were plated in a 96-well format, treated with HGF and exemplary compounds, fluorescently stained, imaged in large fields, and scattering behavior was quantified. Quantification was determined by analyzing the number of continuous groups of cells compared to the total stained area imaged (normalized particle counts).
MDCK cells were plated at low density in black-walled imaging plates and allowed to attach overnight at 37° C. and 5% CO2 in DMEM+10% FBS. Cells were then starved to 2 hours in DMEM without FBS (“starve media”). Samples containing exemplary compounds were prepared in DMEM without FBS and included 5 ng/mL HGF protein (“treatment media”). A control curve was also prepared for each plate using HGF concentrations of 0, 5, 10, and 20 ng/mL. Starve media was replaced with treatment media and cells were incubated for 24 hours at 37° C. and 5% CO2.
After incubation, cells were fixed by replacing treatment media with cold ethanol and incubating for 20 minutes at 4° C. Cells were then rehydrated by washing with PBS and then with stain solution (fluorescent wheat germ agglutinin; WGA488 at 20 μg/mL in PBS). Cells were incubated with stain solution 30 minutes at room temperature after which stain solution was replaced with fresh PBS.
Fields of cells were imaged using an iCyte high content imager in the green wavelength. Images were converted to binary and analyzed for particle size and particle count. For the purpose of analysis, an individual cell touching no other cells or separated colonies of cells were identified as particles, and particle counts were normalized by the total signal area to account for differences in cell number. […] Compound potency was assessed by statistical increase in normalized particle count compared to HGF treatment alone.

For data set [3], the target named is T1, HGF/MET system (Homo sapiens, UniProt P08581+P14210).
T1 construct: HEK293 cells were prepared by passage into 6-well multi-plates; endogenous in cells; host or cells: HEK293
T1 sequence (P08581 308-1390 limits assumed): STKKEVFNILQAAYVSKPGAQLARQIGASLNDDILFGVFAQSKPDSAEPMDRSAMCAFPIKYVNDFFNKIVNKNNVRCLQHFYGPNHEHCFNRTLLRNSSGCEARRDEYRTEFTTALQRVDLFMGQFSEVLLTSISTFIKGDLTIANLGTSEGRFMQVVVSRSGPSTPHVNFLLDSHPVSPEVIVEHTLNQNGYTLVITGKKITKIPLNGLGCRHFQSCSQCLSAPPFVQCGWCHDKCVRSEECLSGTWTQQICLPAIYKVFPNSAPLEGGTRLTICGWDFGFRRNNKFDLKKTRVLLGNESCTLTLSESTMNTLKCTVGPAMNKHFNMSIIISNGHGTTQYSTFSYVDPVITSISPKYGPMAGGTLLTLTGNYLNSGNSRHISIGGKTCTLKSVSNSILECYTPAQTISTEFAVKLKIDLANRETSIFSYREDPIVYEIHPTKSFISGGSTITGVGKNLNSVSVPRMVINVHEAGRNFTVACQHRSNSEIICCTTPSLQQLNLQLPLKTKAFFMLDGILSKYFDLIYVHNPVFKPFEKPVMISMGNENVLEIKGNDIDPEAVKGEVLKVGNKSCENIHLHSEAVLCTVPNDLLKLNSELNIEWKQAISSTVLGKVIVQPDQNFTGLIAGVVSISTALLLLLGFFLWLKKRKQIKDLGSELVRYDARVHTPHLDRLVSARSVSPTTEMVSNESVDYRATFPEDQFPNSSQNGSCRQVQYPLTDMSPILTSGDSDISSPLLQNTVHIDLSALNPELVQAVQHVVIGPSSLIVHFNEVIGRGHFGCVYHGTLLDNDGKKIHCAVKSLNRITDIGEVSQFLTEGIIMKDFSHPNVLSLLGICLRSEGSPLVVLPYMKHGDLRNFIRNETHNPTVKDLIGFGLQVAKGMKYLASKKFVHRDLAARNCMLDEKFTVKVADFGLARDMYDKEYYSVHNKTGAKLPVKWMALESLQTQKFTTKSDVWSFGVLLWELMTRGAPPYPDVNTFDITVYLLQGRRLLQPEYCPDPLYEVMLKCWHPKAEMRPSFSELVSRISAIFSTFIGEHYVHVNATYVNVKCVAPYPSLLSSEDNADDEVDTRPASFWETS
T1 sequence (P14210 32-494 limits assumed): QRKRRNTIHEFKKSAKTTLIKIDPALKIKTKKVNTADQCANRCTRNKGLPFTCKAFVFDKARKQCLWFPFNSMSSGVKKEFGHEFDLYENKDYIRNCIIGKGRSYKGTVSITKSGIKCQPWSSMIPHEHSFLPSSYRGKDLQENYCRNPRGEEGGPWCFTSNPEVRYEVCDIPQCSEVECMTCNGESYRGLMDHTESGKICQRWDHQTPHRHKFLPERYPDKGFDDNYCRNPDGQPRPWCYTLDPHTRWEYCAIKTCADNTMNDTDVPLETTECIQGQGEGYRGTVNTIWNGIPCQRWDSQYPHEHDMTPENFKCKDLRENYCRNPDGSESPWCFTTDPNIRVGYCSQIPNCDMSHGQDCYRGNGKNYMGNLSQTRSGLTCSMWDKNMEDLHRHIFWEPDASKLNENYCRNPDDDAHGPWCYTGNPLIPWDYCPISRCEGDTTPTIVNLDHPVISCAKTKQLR
In words: Phospho-MET ELISA. Type of data set: cell-based. The arrangement: key: − indicates that the compound failed to significantly augment MET phosphorylation; + indicates maximum potency at or above 100 nM; ++ indicates maximum potency at or above 10 nM; +++ indicates maximum potency at or above 1 nM; ++++ indicates maximum potency at or above 0.1 nM. Particulars: HEK293 cells, 1 ng/mL recombinant HGF, 15 minutes, pMET ELISA. Here is the method: Compounds were screened for potency towards the HGF/MET system using phospho-MET (pMET) ELISA kits (Cell Signaling). pMET levels were detected in samples having low (1 ng/mL) and high (10 ng/mL) concentrations of HGF.
HEK293 cells were prepared by passage into 6-well multi-plates and grown at 37° C. at 5% CO2 in DMEM+10% FBS until approximately 90% confluent. Cells were then starved for at least 8 hours in serum-free growth media.
Exemplary compounds were prepared in DMEM+0.1% FBS, diluted and added to treatment media with 1 ng/mL recombinant HGF protein (R&D Systems). Cells were incubated in triplicate at 37° C. and 5% CO2 for 15 minutes. Samples were then treated with 180 μL ice-cold RIPA (radioimmunoprecipitation assay) buffer and cells were lysed on ice for 15 minutes. Lysates were cleared by centrifugation at 16,000-g for 15 minutes and the supernatant was retained. Samples were normalized using a BCA assay of lysates to determine protein concentrations across the samples.
Between 50 and 100 μg total protein lysate was loaded into ELISA wells in pMET Sandwich ELISA kit (Cell Signaling Catalog #7227C), ensuring equal protein load in each well. The ELISA was processed according to manufacturer's instructions. After color developed, absorbance was read on an optical plate reader at 450 nm.
Potency measurements were determined using peak efficacy by scaling test compound dose treatments along a scale of 1-10 between 1 ng/mL and 10 ng/mL HGF doses according to the following formula: […]
where y is the normalized data-point, x is the raw data point, A is the mean HGF at 1 ng/mL, and B is the mean HGF at 10 ng/mL.
Background: An ELISA detects its analyte on a solid surface through an enzyme-linked reagent.

The nature of data set [4]: Parallel artificial membrane permeability assay (PAMPA). In kind it is in vitro ADME. Particulars: PBS, room temperature. Here is the method: Bioavailable drugs must permeate the cellular membranes of the lining of the digestive tract. To estimate the penetrability of exemplary compounds, the in vitro parallel artificial membrane permeability assay (PAMPA) was utilized.
Test compounds must have a standard curve in the final read plate to determine partitioned concentration of each drug. A 6-point standard curve was prepared for each compound from 0 to 200 μM in phosphate-buffered saline (PBS).
Test compound solution (300 μL in PBS) was added to the donor (bottom) well of the PAMPA plate in 5 replicates and PBS vehicle (200 μL) was added to the acceptor (top) wells of appropriate wells to match the loading of the donor plate. The bottom and top of the PAMPA plates were then sandwiched together. The PAMPA plates were then incubated at room temperature for 5 hours. After incubation, 150 μL of donor solution was added to a UV compatible plate containing the corresponding standard curve. 150 μL of acceptor well solution was added adjacent to the corresponding standard curve and donor well samples for that compound. The plate was then read using a UV plate reader.
Permeability and membrane retention were then calculated based on the following formulas:
Permeability (cm/s): (Pe)(cm/s)={−ln [1−CA(t)/Ceq]}/[A*(1/VD+1/VA)*t] (equation 1) • where: • A=filter area (0.3 cm^2); • VD=donor well volume (0.3 mL); • VA=acceptor well volume (0.2 mL); • t=incubation time (seconds); • CA(t)=compound concentration in acceptor well at time t; • CD(t)=compound concentration in donor well at time t; and • Ceq=[CD(t)*VD+CA(t)*VA]/(VD+VA).
Membrane Retention (R)=1−[CD(t)*VD+CA(t)*VA]/(C0*VD) (equation 2) • where: • CD(t), VD, CA(t), and VA are as defined for equation 1, and • C0=initial concentration in donor well (200 uM).
Background: In PAMPA a lipid-coated filter parts donor from acceptor wells.

A short description of data set [5]: Turbidimetric solubility assay. Type of data set: physicochemical. The conditions noted are these: aqueous buffer, kinetic from dmso stock, PBS, 37° C., absorbance 620 nm. How it is done:
Aqueous solubility is a critical drug property that helps to predict bioavailability. Generally, compounds with aqueous solubility <100 μg/ml are poor drugs.
To assess a compound's solubility by turbidity, test compounds were first dissolved in organic solvent (DMSO) at a concentration of 10 mM. This compound solution was then diluted in aqueous solvent (PBS) in a dilution series from […] in a 96-well assay plate. Solutions were incubated at 37° C. for 2 hours.
In wells with test compounds over their solubility limit, the compound will precipitate, effectively blocking the passage of light and thus increasing the absorbance signal of UV light at a wavelength of 620 nm. Compounds were considered insoluble at a tested concentration if turbidity raises the absorbance more than 10% above control reads.

`CCC(C)CN1CC2N(Cc3ccc(OC(F)F)cc3)CCC(=O)N2C(CC(C)C)C1=O` (stereo not shown) [Compound 53, 1-(4-(difluoromethoxy)benzyl)-6-isobutyl-8-(2-methylbutyl)hexahydro-4H-pyrazino[1,2-a]pyrimidine-4,7(6H)-dione]: in data set [1], the Cytotoxicity entry was “+++ (+++ indicates non-toxic at 10 μM)”. The “Potency (cell scattering)” value in data set [2] is “+++ (+++ indicates maximum potency at or above 1 nM)”. Also, the “Potency (augmentation of MET phosphorylation)” value in data set [3] is recorded as “++ (++ indicates maximum potency at or above 10 nM)”. Besides, the Papp at 5 h, 200 µM in data set [4] is under 2 ×10⁻⁶ cm/s. In data set [5], the solubility at 2 h was over 100 µM.

Turning to `CC1C(=O)N(CCC2CCCC2)CC2N(Cc3ccc(C(F)(F)F)c(Cl)c3)CCC(=O)N12` (stereo not shown) [Compound 54], in data set [1], the Cytotoxicity entry is “+++ (+++ indicates non-toxic at 10 μM)”. Moreover, the “Potency (cell scattering)” value in data set [2] is on record as “−”. Moreover, the “Potency (augmentation of MET phosphorylation)” value in data set [3] is recorded as “−”. Moreover, the Papp at 5 h, 200 µM in data set [4] was under 2 ×10⁻⁶ cm/s. This compound also displayed a solubility at 2 h in data set [5] of over 30 µM.
